In US20260001928A1 (CORTERIA PHARMACEUTICALS, priority 2022, published 2026):
One block for each molecule: values may come before it. *1 amine or outer side, *2 acyl side, *3 side chain or, on linkers, in order; H or OH if unused. Where a SMILES comes first, the peptide text is derived from it. Where no end group is shown, it is not given here. Side-chain parts run from the residue outwards. [ ]: non-standard residue; d: D form. The star is where a group is joined. C20 diacid = O=C(O)CCCCCCCCCCCCCCCCCCC(=O)*; C18 diacid = O=C(O)CCCCCCCCCCCCCCCCC(=O)*; C16 diacid = O=C(O)CCCCCCCCCCCCCCC(=O)*; γGlu = O=C(O)[C@H](CCC(=O)[*:2])N[*:1]; NMeI = CC[C@H](C)[C@H](NC)C(=O)O; AEEA = NCCOCCOCC(=O)O; Aib = CC(C)(N)C(=O)O

Columns and labels:
human LAD2 cells = type: cell-based
Method: LAD2 cells (20000 cells/well, 96-well plates and 10,000 cells/well in 384-well plates) were incubated with compounds for 30 min. The R-hexosaminidase released into the supernatants and in cell lysates was quantified using the fluorogenic substrate 4-methylumbelliferyl-N-acetyl-b-D-glucosaminide.
On the day of the assay, the lyophilized peptides were dissolved in DMSO and/or PBS 1× pH 7.4, to obtain stock solutions. The stock solutions were used to prepare working serial dilutions to have final concentrations in assay ranging from 50, 100 or 300 to 0.1 or 0.001 μM. Each peptide was tested in biological duplicates. When compounds were dissolved in DMSO, the final solvent concentration in assay was 0.5% (v/v).
The percentage of degranulation, expressed as % of R-hexosaminidase release, was calculated by dividing the fluorescence signal of the supernatant by the sum of the signals from the supernatant and cell pellet (lysed with Triton X-100, final 1%) and multiplying by 100.
Dose-response curves were generated by plotting the % of R-hexosaminidase release versus total release of cells treated with triton (y-axis) against the concentrations of peptides tested (x-axis). The Mast Cell Degranulation (MCD) EC50 values and standard errors were calculated using XLfit 5.5.0.5 based on the following equation:
4 Parameter Sigmoidal Model: f=(A+((B−A)/(1+((C/x)^D))))
where A=Emin, B=Emax, C=EC50 and D=slope

[1] = molecular target: T1, CRF1R (corticotropin-releasing factor receptor 1), on the CRF1R-overexpression CHO-K1 cell line clone 2 (UniProt P34998 24-415, limits assumed); assay: cell-based or functional assay
T1 sequence (looked up): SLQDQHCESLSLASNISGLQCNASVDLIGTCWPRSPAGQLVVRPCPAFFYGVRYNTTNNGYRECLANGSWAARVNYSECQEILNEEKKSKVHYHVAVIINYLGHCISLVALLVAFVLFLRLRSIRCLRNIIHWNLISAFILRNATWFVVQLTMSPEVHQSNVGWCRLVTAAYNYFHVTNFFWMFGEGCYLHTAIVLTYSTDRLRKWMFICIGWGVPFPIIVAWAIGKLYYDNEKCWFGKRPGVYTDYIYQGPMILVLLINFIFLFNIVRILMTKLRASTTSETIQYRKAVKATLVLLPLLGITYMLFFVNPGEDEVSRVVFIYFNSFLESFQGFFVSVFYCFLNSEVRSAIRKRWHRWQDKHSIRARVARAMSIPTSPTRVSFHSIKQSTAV

Molecule: CC[C@H](C)[C@H](NC(C)=O)C(=O)N[C@H](C(=O)N[C@@H](CC(C)C)C(=O)N[C@@H](CO)C(=O)N[C@@H](CC(C)C)C(=O)N[C@@H](CC(=O)O)C(=O)N[C@@H](C(=O)N1CCC[C@H]1C(=O)N[C@H](C(=O)N[C@@H](CCCCN)C(=O)N[C@@H](CC(C)C)C(=O)N[C@@H](CCCCNC(=O)CC[C@H](NC(=O)CCCCCCCCCCCCCCC(=O)O)C(=O)O)C(=O)N[C@@H](CCCCN)C(=O)N[C@H](C(=O)N[C@@H](CC(C)C)C(=O)N[C@@H](CC(C)C)C(=O)N[C@@H](CCC(=O)O)C(=O)N[C@@H](CCC(N)=O)C(=O)N[C@@H](CCC(=O)O)C(=O)N[C@@H](CCCCN)C(=O)N[C@@H](CCC(N)=O)C(=O)N[C@@H](CCCCN)C(=O)N[C@@H](CCCCN)C(=O)N[C@@H](CCC(N)=O)C(=O)N[C@@H](CCCNC(=N)N)C(=O)N[C@@H](CCC(=O)O)C(=O)N[C@@H](CCC(N)=O)C(=O)N[C@@H](C)C(=O)N[C@@H](CCC(=O)O)C(=O)N[C@H](C(=O)N[C@@H](CC(N)=O)C(=O)N[C@@H](CCC(=O)O)C(=O)N[C@@H](CCC(N)=O)C(=O)N[C@H](C(=O)N[C@@H](CC(C)C)C(=O)N[C@@H](C)C(=O)N[C@@H](CCC(N)=O)C(=O)N[C@H](C(N)=O)C(C)C)[C@@H](C)CC)[C@@H](C)O)[C@@H](C)CC)[C@@H](C)CC)C(C)C)C(C)C [56 (comp)] (Ac-IVLSLD[dV]PIKLK([γGlu-C16 diacid])KILLEQEKQKKQREQAETNEQILAQV-NH2)
- EC50 (human LAD2 cells): 38.5 µM

Molecule: CC[C@H](C)[C@H](N)C(=O)N[C@H](C(=O)N[C@@H](CC(C)C)C(=O)N[C@@H](CO)C(=O)N[C@@H](CC(C)C)C(=O)N[C@@H](CC(=O)O)C(=O)N[C@H](C(=O)N1CCC[C@H]1C(=O)N[C@H](C(=O)N[C@@H](CCCCN)C(=O)N[C@@H](CC(C)C)C(=O)N[C@@H](CCCCNC(=O)COCCOCCNC(=O)COCCOCCNC(=O)CC[C@H](NC(=O)CCCCCCCCCCCCCCCCC(=O)O)C(=O)O)C(=O)N[C@@H](CCCCN)C(=O)N[C@H](C(=O)N[C@@H](CC(C)C)C(=O)N[C@@H](CC(C)C)C(=O)N[C@@H](CCC(=O)O)C(=O)N[C@@H](CCC(N)=O)C(=O)N[C@@H](CCC(=O)O)C(=O)N[C@@H](CCCCN)C(=O)N[C@@H](CCC(N)=O)C(=O)N[C@@H](CCCCN)C(=O)N[C@@H](CCCCN)C(=O)N[C@@H](CCC(N)=O)C(=O)N[C@@H](CCCNC(=N)N)C(=O)N[C@@H](CCC(=O)O)C(=O)N[C@@H](CCC(N)=O)C(=O)N[C@@H](C)C(=O)N[C@@H](CCC(=O)O)C(=O)N[C@H](C(=O)N[C@@H](CC(N)=O)C(=O)N[C@@H](CCCCN)C(=O)N[C@@H](CCC(N)=O)C(=O)N[C@H](C(=O)N[C@@H](CC(C)C)C(=O)N[C@@H](C)C(=O)N[C@@H](CCC(N)=O)C(=O)N[C@H](C(N)=O)C(C)C)[C@@H](C)CC)[C@@H](C)O)[C@@H](C)CC)[C@@H](C)CC)C(C)C)C(C)C [149 (comp)] (H-IVLSLDVPIKLK([AEEA-AEEA-γGlu-C18 diacid])KILLEQEKQKKQREQAETNKQILAQV-NH2)
- EC50 (human LAD2 cells): 50.4 µM

Molecule: CC[C@H](C)[C@H](N)C(=O)N[C@H](C(=O)N[C@@H](CC(C)C)C(=O)N[C@@H](CO)C(=O)N[C@@H](CC(C)C)C(=O)N[C@@H](CC(=O)O)C(=O)N[C@H](C(=O)N1CCC[C@H]1C(=O)N[C@H](C(=O)N[C@@H](CCCCN)C(=O)N[C@@H](CC(C)C)C(=O)N[C@@H](CCCCNC(=O)CC[C@H](NC(=O)CCCCCCCCCCCCCCC(=O)O)C(=O)O)C(=O)N[C@@H](CCC(N)=O)C(=O)N[C@H](C(=O)N[C@@H](CC(C)C)C(=O)N[C@@H](CC(C)C)C(=O)N[C@@H](CCCCN)C(=O)N[C@@H](CCC(N)=O)C(=O)N[C@@H](CCC(=O)O)C(=O)N[C@@H](CCCNC(=N)N)C(=O)N[C@@H](CCC(N)=O)C(=O)N[C@@H](CCCCN)C(=O)N[C@@H](CCCCN)C(=O)N[C@@H](CCC(N)=O)C(=O)N[C@@H](CCCNC(=N)N)C(=O)N[C@@H](CCC(=O)O)C(=O)N[C@@H](CCC(N)=O)C(=O)N[C@@H](C)C(=O)N[C@@H](CCC(=O)O)C(=O)N[C@@H](CCCCN)C(=O)N[C@@H](CC(N)=O)C(=O)N[C@@H](CCCCN)C(=O)N[C@@H](CCC(N)=O)C(=O)N[C@H](C(=O)N[C@@H](CC(C)C)C(=O)N[C@@H](CCC(=O)O)C(=O)N[C@@H](CCC(N)=O)C(=O)N[C@H](C(N)=O)C(C)C)[C@@H](C)CC)[C@@H](C)CC)[C@@H](C)CC)C(C)C)C(C)C [151 (comp)] (H-IVLSLDVPIKLK([γGlu-C16 diacid])QILLKQERQKKQREQAEKNKQILEQV-NH2)
- EC50 (human LAD2 cells): 32.9 µM

Molecule: CC[C@H](C)[C@H](NC)C(=O)N[C@H](C(=O)N[C@@H](CC(C)C)C(=O)N[C@@H](CO)C(=O)N[C@@H](CC(C)C)C(=O)N[C@@H](CC(=O)O)C(=O)N[C@@H](C(=O)N1CCC[C@H]1C(=O)N[C@H](C(=O)N[C@@H](CCCCN)C(=O)N[C@@H](CC(C)C)C(=O)N[C@@H](CCCCNC(=O)COCCOCCNC(=O)COCCOCCNC(=O)CC[C@H](NC(=O)CCCCCCCCCCCCCCCCC(=O)O)C(=O)O)C(=O)N[C@@H](CCCCN)C(=O)N[C@H](C(=O)N[C@@H](CC(C)C)C(=O)N[C@@H](CC(C)C)C(=O)N[C@@H](CCC(=O)O)C(=O)N[C@@H](CCC(N)=O)C(=O)N[C@@H](CCC(=O)O)C(=O)N[C@@H](CCCCN)C(=O)N[C@@H](CCC(N)=O)C(=O)N[C@@H](CCCCN)C(=O)N[C@@H](CCCCN)C(=O)N[C@@H](CCC(N)=O)C(=O)N[C@@H](CCCNC(=N)N)C(=O)N[C@@H](CCC(=O)O)C(=O)N[C@@H](CCC(N)=O)C(=O)N[C@@H](C)C(=O)N[C@@H](CCC(=O)O)C(=O)N[C@H](C(=O)N[C@@H](CC(N)=O)C(=O)NC(C)(C)C(=O)N[C@@H](CCC(N)=O)C(=O)N[C@H](C(=O)N[C@@H](CC(C)C)C(=O)N[C@@H](C)C(=O)N[C@@H](CCC(N)=O)C(=O)N[C@H](C(N)=O)C(C)C)[C@@H](C)CC)[C@@H](C)O)[C@@H](C)CC)[C@@H](C)CC)C(C)C)C(C)C [Cmpd 118] (H-[NMeI]VLSLD[dV]PIKLK([AEEA-AEEA-γGlu-C18 diacid])KILLEQEKQKKQREQAETN[Aib]QILAQV-NH2)
- EC50 (human LAD2 cells): > 100 µM

Other lines, results leading:

- EC50 (human LAD2 cells): > 100 µM
Molecule: CC[C@H](C)[C@H](NC(C)=O)C(=O)N[C@H](C(=O)N[C@@H](CC(C)C)C(=O)N[C@@H](CO)C(=O)N[C@@H](CC(C)C)C(=O)N[C@@H](CC(=O)O)C(=O)N[C@@H](C(=O)N1CCC[C@H]1C(=O)N[C@H](C(=O)N[C@@H](CCCCN)C(=O)N[C@@H](CC(C)C)C(=O)N[C@@H](CCCCNC(=O)CC[C@H](NC(=O)CCCCCCCCCCCCCCCCC(=O)O)C(=O)O)C(=O)N[C@@H](CCCCN)C(=O)N[C@H](C(=O)N[C@@H](CC(C)C)C(=O)N[C@@H](CC(C)C)C(=O)N[C@@H](CCC(=O)O)C(=O)N[C@@H](CCC(N)=O)C(=O)N[C@@H](CCC(=O)O)C(=O)N[C@@H](CCCCN)C(=O)N[C@@H](CCC(N)=O)C(=O)N[C@@H](CCCCN)C(=O)N[C@@H](CCCCN)C(=O)N[C@@H](CCC(N)=O)C(=O)N[C@@H](CCCNC(=N)N)C(=O)N[C@@H](CCC(=O)O)C(=O)N[C@@H](CCC(N)=O)C(=O)N[C@@H](C)C(=O)N[C@@H](CCC(=O)O)C(=O)N[C@H](C(=O)N[C@@H](CC(N)=O)C(=O)NC(C)(C)C(=O)N[C@@H](CCC(N)=O)C(=O)N[C@H](C(=O)N[C@@H](CC(C)C)C(=O)N[C@@H](C)C(=O)N[C@@H](CCC(N)=O)C(=O)N[C@H](C(N)=O)C(C)C)[C@@H](C)CC)[C@@H](C)O)[C@@H](C)CC)[C@@H](C)CC)C(C)C)C(C)C [Cmpd 125] (Ac-IVLSLD[dV]PIKLK([γGlu-C18 diacid])KILLEQEKQKKQREQAETN[Aib]QILAQV-NH2)

- EC50 [nM] (cAMP, CRF1R-overexpression CHO-K1 cells) [1]: > 250 nM
- Emax (% I) (cAMP, 100% = Sauvagine at 100 nM) [1]: 0 % I
B1: peptide of SEQ ID NO: 239 (peptide)
peptide: [NMeI]VLSLD[dV]PIKLK([AEEA-AEEA-γGlu-C20 diacid])KILLEQEKQK[Aib]QREQAETN[Aib]QILAQV-NH2
modifications: N-terminus assumed
SMILES: CC[C@H](C)[C@H](NC)C(=O)N[C@H](C(=O)N[C@@H](CC(C)C)C(=O)N[C@@H](CO)C(=O)N[C@@H](CC(C)C)C(=O)N[C@@H](CC(=O)O)C(=O)N[C@@H](C(=O)N1CCC[C@H]1C(=O)N[C@H](C(=O)N[C@@H](CCCCN)C(=O)N[C@@H](CC(C)C)C(=O)N[C@@H](CCCCNC(=O)COCCOCCNC(=O)COCCOCCNC(=O)CC[C@H](NC(=O)CCCCCCCCCCCCCCCCCCC(=O)O)C(=O)O)C(=O)N[C@@H](CCCCN)C(=O)N[C@H](C(=O)N[C@@H](CC(C)C)C(=O)N[C@@H](CC(C)C)C(=O)N[C@@H](CCC(=O)O)C(=O)N[C@@H](CCC(N)=O)C(=O)N[C@@H](CCC(=O)O)C(=O)N[C@@H](CCCCN)C(=O)N[C@@H](CCC(N)=O)C(=O)N[C@@H](CCCCN)C(=O)NC(C)(C)C(=O)N[C@@H](CCC(N)=O)C(=O)N[C@@H](CCCNC(=N)N)C(=O)N[C@@H](CCC(=O)O)C(=O)N[C@@H](CCC(N)=O)C(=O)N[C@@H](C)C(=O)N[C@@H](CCC(=O)O)C(=O)N[C@H](C(=O)N[C@@H](CC(N)=O)C(=O)NC(C)(C)C(=O)N[C@@H](CCC(N)=O)C(=O)N[C@H](C(=O)N[C@@H](CC(C)C)C(=O)N[C@@H](C)C(=O)N[C@@H](CCC(N)=O)C(=O)N[C@H](C(N)=O)C(C)C)[C@@H](C)CC)[C@@H](C)O)[C@@H](C)CC)[C@@H](C)CC)C(C)C)C(C)C
